Series [1] is described as follows: Human liver microsomal Clint. It is filed as in vitro ADME. As to conditions: for microsomal CLint: human, HLM Clint (μL/min/mg); for microsomal CLint / HLM Clint: human liver microsomes.
The nature of series [2]: Preliminary toxicity study in mice. It is filed as in vivo. Conditions: 100 mg/kg orally.
For series [3], the system named is Salmonella typhimurium strains. Kind of series: Ames fluctuation assay. Conditions: with and without rat liver S9 fraction. It is filed as cell-based. For orientation: In the Ames test, an excess of revertant colonies over the control signals mutagenicity.
Another series can be described thus: Chemical stability. It counts as physicochemical.
The test system of the next series is HepG2 cells. The series is described as follows: Drug toxicity to HepG2 cells. As to conditions: 48 h, MTT. It counts as cell-based, human.
A short description of series [4]: Human plasma protein binding. As to conditions: equilibrium dialysis, 18 h, 37 °C. It counts as in vitro ADME. For orientation: In equilibrium dialysis free small molecules cross a membrane that holds back macromolecules.
The next series can be described thus: Aqueous pH 7.4. It counts as physicochemical. Conditions: 0.1 M phosphate buffer pH 7.4, 25 °C, 20-24 h.

“Also recorded” adds a separate entry of the source.

For the molecule `Cc1c(-c2cnc(N3CCN(C)CC3)nc2)ccc2c(Nc3cnccn3)ccnc12` [9b, 8-Methyl-7-(2-(4-methylpiperazin-1-yl)pyrimidin-5-yl)-N-(pyrazin-2-yl)quinolin-4-amine], the microsomal CLint (usually the capacity of the preparation to metabolise the compound, expressed as a volume cleared per time) in series [1] is 120 µL/min/mg.

As for `CN1C[C@@H]2C[C@H]1CN2c1ncc(-c2ccc3c(Nc4cnccn4)ccnc3c2)cn1` [10a, 7-(2-((1S,4S)-5-Methyl-2,5-diazabicyclo[2.2.1]heptan-2-yl)pyrimidin-5-yl)-N-(pyrazin-2-yl)quinolin-4-amine], in series [1], the “Increase in metabolic stability compared to 1” value (“Increase in metabolic stability” below) was 4 fold.

As for `CN1CCCN(c2ncc(-c3ccc4/c(=N/c5cnccn5)ccn(C)c4c3)cn2)CC1` [22a, (E)-1-Methyl-7-(2-(4-methyl-1,4-diazepan-1-yl)pyrimidin-5-yl)-N-(pyrazin-2-yl)quinolin-4(1H)-imine], in series [1], the intrinsic clearance (microsomal CLint) is 22 µL/min/mg. For the same molecule, in series [2], the “Adverse effects in preliminary toxicity study” value was “no adverse effects”. Further, the Genotoxicity entry in series [3] was “Neither 22a or its metabolites were found to be genotoxic; also recorded: neither it, nor its metabolites, are genotoxic”. The Hydrolytic stability result in “Chemical stability” (acidic and basic conditions) is “hydrolytic stability was confirmed under both acidic and basic conditions”. For the same molecule, in the series “Chemical stability” (glutathione and cyanide), the “Stability to hard and soft nucleophile” value is “stable in the presence of both glutathione and cyanide”.

`CN1CCN(Nc2ncc(-c3ccc4c(Nc5cnccn5)ccnc4c3)cn2)CC1` [16f, 7-(2-((4-Methylpiperazin-1-yl)amino)pyrimidin-5-yl)-N-(pyrazin-2-yl)quinolin-4-amine]: in series [1], the “Increase in metabolic stability” value is 10 fold and the “HLM Clint” value is 16 µL/min/mg.

In the case of `CN1C[C@H]2C[C@@H]1CN2c1ncc(-c2ccc3c(Nc4cnccn4)ccnc3c2)cn1` [10b, 7-(2-((1R,4R)-5-Methyl-2,5-diazabicyclo[2.2.1]heptan-2-yl)pyrimidin-5-yl)-N-(pyrazin-2-yl)quinolin-4-amine], the “Increase in metabolic stability” value in series [1] is 4 fold.

In series [1], `Cc1cc2c(Nc3cnccn3)ccnc2cc1-c1cnc(N2CCN(C)CC2)nc1` [9a, 6-Methyl-7-(2-(4-methylpiperazin-1-yl)pyrimidin-5-yl)-N-(pyrazin-2-yl)quinolin-4-amine] returned a microsomal CLint of 130 µL/min/mg.

With “tert-Butyl methyl(2-((4-(4-(pyrazin-2-ylamino)quinolin-7-yl)phenyl)amino)ethyl)carbamate [6c]”, the “HepG2 TC50” value in the series with HepG2 cells amounted to 8.0 µM. The “HLM Clint” value in series [1] is above 300 µL/min/mg. For the same molecule, the “Human PPB (%)” value in series [4] worked out at 95%. Besides, in the series “Aqueous pH 7.4”, the “Aq sol (μM) (thermodynamic solubility)” value was 3.0 µM.
